Source: ChEMBL document CHEMBL4680060, “Polybasic peptide-levofloxacin conjugates potentiate fluoroquinolones and other classes of antibiotics against multidrug-resistant Gram-negative bacteria” (Medchemcomm, 2019)
≈ marks a conversion by molar mass, not a printed value. Calls of active or inactive are those of the source. No cut-off for these calls is given here.

Columns and labels:
Escherichia coli [1] = assay: Additive antibacterial activity against Escherichia coli 107115 in presence of ciprofloxacin by Checkerboard assay; assay type: functional, organism-based
Pseudomonas aeruginosa [2] = assay: Synergistic antibacterial activity against multidrug resistant Pseudomonas aeruginosa PA259 in presence of moxifloxacin by Checkerboard assay; assay type: functional, organism-based
[3] = system: Staphylococcus epidermidis; assay: Antibacterial activity against methicillin-susceptible Staphylococcus epidermidis clinical isolate CANWARD-2008 81388 assessed as inhibition of visible growth incubated for 18 hrs by CLSI protocol based microbroth dilution method; assay type: functional
Pseudomonas aeruginosa [4] = assay: Synergistic antibacterial activity against multidrug resistant Pseudomonas aeruginosa PA100036 in presence of ciprofloxacin by Checkerboard assay; assay type: functional, organism-based
Pseudomonas aeruginosa [5] = assay: Potentiation of trimethoprim-induced antibacterial activity against wild type Pseudomonas aeruginosa PAO1 measured after 18 hrs by CLSI protocol based microbroth dilution method; assay type: functional, organism-based
Staphylococcus aureus [6] = assay: Antibacterial activity against methicillin-resistant Staphylococcus aureus ATCC 33592 assessed as inhibition of visible growth incubated for 18 hrs by CLSI protocol based microbroth dilution method; assay type: functional
Enterobacter cloacae = assay: Antibacterial activity against Enterobacter cloacae 117029 assessed as inhibition of visible growth incubated for 18 hrs by CLSI protocol based microbroth dilution method; assay type: functional
Pseudomonas aeruginosa [7] = assay: Potentiation of clindamycin-induced antibacterial activity against wild type Pseudomonas aeruginosa PAO1 measured after 18 hrs by CLSI protocol based microbroth dilution method; assay type: functional, organism-based
Staphylococcus aureus [8] = assay: Antibacterial activity against methicillin-resistant Staphylococcus aureus clinical isolate CAN-ICU 61589 assessed as inhibition of visible growth incubated for 18 hrs by CLSI protocol based microbroth dilution method; assay type: functional
Pseudomonas aeruginosa [9] = assay: Additive antibacterial activity against MexAB-OprM efflux pump deficient Pseudomonas aeruginosa PAO200 in presence of moxifloxacin by Checkerboard assay; assay type: functional, organism-based
[10] = Hemolytic activity in pig erythrocyte at 512 ug/ml incubated for 1 hr by microplate reader assay relative to control; assay type: ADME, cell-based, Sus scrofa; conditions: pig erythrocytes, at 512 µg/mL, read-out: Activity
Pseudomonas aeruginosa [11] = assay: Additive antibacterial activity against MexAB-OprM, MexCD-OprJ, MexEF-OprN, MexJK and MexXY efflux pumps deficient Pseudomonas aeruginosa PAO750 in presence of moxifloxacin by Checkerboard assay; assay type: functional, organism-based
Pseudomonas aeruginosa [12] = assay: Synergistic antibacterial activity against wild type Pseudomonas aeruginosa PAO1 in presence of levofloxacin by Checkerboard assay; assay type: functional, organism-based
Klebsiella pneumoniae [13] = assay: Synergistic antibacterial activity against Klebsiella pneumoniae 116381 in presence of ciprofloxacin by Checkerboard assay; assay type: functional, organism-based
Escherichia coli [14] = assay: Synergistic antibacterial activity against Escherichia coli 94393 in presence of moxifloxacin by Checkerboard assay; assay type: functional, organism-based
Klebsiella pneumoniae [15] = assay: Antibacterial activity against Klebsiella pneumoniae 116381 assessed as inhibition of visible growth incubated for 18 hrs by CLSI protocol based microbroth dilution method; assay type: functional
Acinetobacter baumannii [16] = assay: Antibacterial activity against Acinetobacter baumannii clinical isolate CAN-ICU 63169 assessed as inhibition of visible growth incubated for 18 hrs by CLSI protocol based microbroth dilution method; assay type: functional
Escherichia coli [17] = assay: Synergistic antibacterial activity against Escherichia coli ATCC 25922 in presence of levofloxacin by Checkerboard assay; assay type: functional, organism-based
Pseudomonas aeruginosa [18] = assay: Synergistic antibacterial activity against multidrug resistant Pseudomonas aeruginosa PA262 in presence of levofloxacin by Checkerboard assay; assay type: functional, organism-based
Pseudomonas aeruginosa [19] = assay: Synergistic antibacterial activity against multidrug resistant Pseudomonas aeruginosa PA264 in presence of ciprofloxacin by Checkerboard assay; assay type: functional, organism-based
Acinetobacter baumannii [20] = assay: Synergistic antibacterial activity against multidrug resistant Acinetobacter baumannii AB027 assessed as fractional inhibitory concentration index in presence of moxifloxacin by Checkerboard assay; assay type: functional
Pseudomonas aeruginosa [21] = assay: Potentiation of moxifloxacin-induced antibacterial activity against wild type Pseudomonas aeruginosa PAO1 assessed as moxifloxacin MIC measured after 18 hrs by CLSI protocol based microbroth dilution method (reference value: 1 ug/ml); assay type: functional
Escherichia coli [22] = assay: Synergistic antibacterial activity against Escherichia coli 94393 in presence of levofloxacin by Checkerboard assay; assay type: functional, organism-based
Enterococcus faecalis = assay: Antibacterial activity against Enterococcus faecalis ATCC 29212 assessed as inhibition of visible growth incubated for 18 hrs by CLSI protocol based microbroth dilution method; assay type: functional
Escherichia coli [23] = assay: Synergistic antibacterial activity against Escherichia coli ATCC 25922 in presence of moxifloxacin by Checkerboard assay; assay type: functional, organism-based
Pseudomonas aeruginosa [24] = assay: Potentiation of aztreonam-induced antibacterial activity against wild type Pseudomonas aeruginosa PAO1 measured after 18 hrs by CLSI protocol based microbroth dilution method; assay type: functional, organism-based
Pseudomonas aeruginosa [25] = assay: Additive antibacterial activity against MexAB-OprM, MexCD-OprJ, MexEF-OprN, MexJK and MexXY efflux pumps deficient Pseudomonas aeruginosa PAO750 in presence of levofloxacin by Checkerboard assay; assay type: functional, organism-based
Acinetobacter baumannii [26] = assay: Synergistic antibacterial activity against Acinetobacter baumannii ATCC 17978 in presence of levofloxacin by Checkerboard assay; assay type: functional, organism-based
Pseudomonas aeruginosa [27] = assay: Synergistic antibacterial activity against multidrug resistant Pseudomonas aeruginosa PA260 in presence of moxifloxacin by Checkerboard assay; assay type: functional, organism-based
Pseudomonas aeruginosa [28] = assay: Potentiation of levofloxacin-induced antibacterial activity against wild type Pseudomonas aeruginosa PAO1 assessed as levofloxacin MIC measured after 18 hrs by CLSI protocol based microbroth dilution method (reference value: 0.5 ug/ml); assay type: functional
Pseudomonas aeruginosa [29] = assay: Additive antibacterial activity against MexAB-OprM, MexCD-OprJ, MexEF-OprN, MexJK and MexXY efflux pumps deficient Pseudomonas aeruginosa PAO750 in presence of ciprofloxacin by Checkerboard assay; assay type: functional, organism-based
Acinetobacter baumannii [30] = assay: Synergistic antibacterial activity against Acinetobacter baumannii ATCC 17978 in presence of ciprofloxacin by Checkerboard assay; assay type: functional, organism-based
Pseudomonas aeruginosa [31] = assay: Potentiation of moxifloxacin-induced antibacterial activity against wild type Pseudomonas aeruginosa PAO1 assessed as […] measured after 18 hrs by CLSI protocol based microbroth dilution method relative to moxifloxacin MIC; assay type: functional
Klebsiella pneumoniae [32] = assay: Synergistic antibacterial activity against Klebsiella pneumoniae 116381 in presence of moxifloxacin by Checkerboard assay; assay type: functional, organism-based
Pseudomonas aeruginosa [33] = assay: Synergistic antibacterial activity against multidrug resistant Pseudomonas aeruginosa PA100036 in presence of moxifloxacin by Checkerboard assay; assay type: functional, organism-based
Staphylococcus aureus [34] = assay: Antibacterial activity against Staphylococcus aureus ATCC 29213 assessed as inhibition of visible growth incubated for 18 hrs by CLSI protocol based microbroth dilution method; assay type: functional
Pseudomonas aeruginosa [35] = assay: Synergistic antibacterial activity against multidrug resistant Pseudomonas aeruginosa PA259 in presence of ciprofloxacin by Checkerboard assay; assay type: functional, organism-based
Pseudomonas aeruginosa [36] = assay: Potentiation of novobiocin-induced antibacterial activity against wild type Pseudomonas aeruginosa PAO1 measured after 18 hrs by CLSI protocol based microbroth dilution method; assay type: functional, organism-based
Escherichia coli [37] = assay: Antibacterial activity against Escherichia coli ATCC 25922 assessed as inhibition of visible growth incubated for 18 hrs by CLSI protocol based microbroth dilution method; assay type: functional
Escherichia coli [38] = assay: Additive antibacterial activity against Escherichia coli 94474 in presence of ciprofloxacin by Checkerboard assay; assay type: functional, organism-based
Pseudomonas aeruginosa [39] = assay: Synergistic antibacterial activity against multidrug resistant Pseudomonas aeruginosa PA101885 in presence of moxifloxacin by Checkerboard assay; assay type: functional, organism-based
Pseudomonas aeruginosa [40] = assay: Synergistic antibacterial activity against multidrug resistant Pseudomonas aeruginosa PA264 in presence of levofloxacin by Checkerboard assay; assay type: functional, organism-based
Pseudomonas aeruginosa [41] = assay: Synergistic antibacterial activity against wild type Pseudomonas aeruginosa PAO1 in presence of moxifloxacin by Checkerboard assay; assay type: functional, organism-based

C[C@H]1COc2c(N3CCN(C)CC3)c(F)cc3c(=O)c(C(=O)NCCCCCCCCCCCC(=O)N[C@@H](CCN)C(=O)N[C@@H](CCN)C(N)=O)cn1c23
Activity (Escherichia coli [1]): Active | Activity (Pseudomonas aeruginosa [2]): Active | MIC [3]: 64 µg/mL (≈ 84.4 µM) | Activity (Pseudomonas aeruginosa [4]): Active | Activity (Pseudomonas aeruginosa [5]): Active | MIC (Staphylococcus aureus [6]): > 128 µg/mL | MIC (Enterobacter cloacae): 128 µg/mL (≈ 169 µM) | Activity (Pseudomonas aeruginosa [7]): Active | MIC (Staphylococcus aureus [8]): 128 µg/mL (≈ 169 µM) | Activity (Pseudomonas aeruginosa [9]): Active | hemolysis at 1 h, 512 ug/ml [10]: < 1% | Activity (Pseudomonas aeruginosa [11]): Active | Activity (Pseudomonas aeruginosa [12]): Active | Activity (Klebsiella pneumoniae [13]): Active | Activity (Escherichia coli [14]): Active | MIC (Klebsiella pneumoniae [15]): > 128 µg/mL | MIC (Acinetobacter baumannii [16]): > 128 µg/mL | Activity (Escherichia coli [17]): Active | Activity (Pseudomonas aeruginosa [18]): Active | Activity (Pseudomonas aeruginosa [19]): Active | fractional inhibitory concentration index (FICI) (Acinetobacter baumannii [20]): 0.37 | MIC (Pseudomonas aeruginosa [21]): 0.25 µg/mL | Activity (Escherichia coli [22]): Active | MIC (Enterococcus faecalis): > 128 µg/mL | Activity (Escherichia coli [23]): Active | Activity (Pseudomonas aeruginosa [24]): inactive | Activity (Pseudomonas aeruginosa [25]): Active | Activity (Acinetobacter baumannii [26]): inactive | Activity (Pseudomonas aeruginosa [27]): Active | MIC (Pseudomonas aeruginosa [28]): 0.063 µg/mL | Activity (Pseudomonas aeruginosa [29]): Active | Activity (Acinetobacter baumannii [30]): inactive | Ratio (Pseudomonas aeruginosa [31]): 4 | Activity (Klebsiella pneumoniae [32]): Active | Activity (Pseudomonas aeruginosa [33]): Active | MIC (Staphylococcus aureus [34]): 128 µg/mL (≈ 169 µM) | Activity (Pseudomonas aeruginosa [35]): Active | Activity (Pseudomonas aeruginosa [36]): Active | MIC (Escherichia coli [37]): 64 µg/mL (≈ 84.4 µM) | Activity (Escherichia coli [38]): Active | Activity (Pseudomonas aeruginosa [39]): Active | Activity (Pseudomonas aeruginosa [40]): Active | Activity (Pseudomonas aeruginosa [41]): Active
